Results on 2 molecules are retold here after article PMC6747225 (International Journal of Environmental Research and Public …, 2019).

One data set concerns CY2D6 enzyme. Particulars: humans and mammals; cited from earlier work.
Data set [1] deals with superoxide dismutase (SOD). Put plainly: Superoxide dismutase (SOD) activity in fish liver. Type of data set: in vivo, Carassius auratus. Particulars: SER alone 5 μg·L^−1 compared to control, seven days. On the procedure:
A dechlorinated water control treatment and solvent control treatment (0.1% methanol) were also set in the exposure treatments. Each treatment was prepared in six replicate tanks (30 L) with four fish per tank. Fish were not fed during the exposure period. The exposure solutions were refreshed every 24 h. After the exposure experiment, six fish were sampled in each treatment for biochemical assay and chemical analysis. The liver, brain, gills, and muscle were dissected, immediately frozen in liquid nitrogen, and stored at −80 °C until the assays. The remaining 18 fish in each treatment were used for behavioral trials at the end of exposure.
The tissue sample was homogenized in chilled physiological saline solution (1:10, w/v). The homogenates were then centrifuged for 10 min (10,000 g) at 4 °C. The obtained supernatant was used to determine enzyme activity, MDA content, and protein concentration using bioassay kits according to the manufacturer’s protocol. Enzyme activity is reported as unit (U) mg^−1 protein, and MDA content is expressed in nmol mg^−1 protein.

Consider `CN(C)CCOC(c1ccccc1)c1ccccc1` [DPH, diphenhydramine], for which the “Inhibition of the CY2D6 enzyme” value in the data set with CY2D6 enzyme was “strong inhibitor”. Consider `CN[C@H]1CC[C@@H](c2ccc(Cl)c(Cl)c2)c2ccccc21` [SER, sertraline], for which the SOD activity entry in data set [1] is “not significantly changed”.
